From US20220348543A1, “SALTS OF OMECAMTIV MECARBIL AND SOLID FORMS THEREOF” (SYNTHON B.V., priority 2019, published 2022)
Structures can show the parent of a compound that is named as a salt. Where two headings read alike, the source gives them in different places.

Legend:
[1] = Solubility of Omecamtiv mecarbil salts in water solution (aqueous buffer) at different pH; type: physicochemical; details: USP / Ph. Eur. descriptive terms, read-out: Category of solubility (Descriptive Term)
Method: The solubility of prepared salts was tested in water solution at different pH (1.2, 4.5 and 6.8) and compared to Omecamtiv mecarbil dihydrochloride monohydrate salt prepared according to a procedure disclosed in WO2006009726 application.
It can be concluded that solubility of all prepared salt is better that the solubility of dihydrochloride monohydrate salt.

[2] = Stability at 25° C. of the solid isolated from salt crystallisation; type: physicochemical; details: crystallised from 2-butanone
Method: The preparation of Omecamtiv mecarbil methane sulfonic acid salt was tested also in following solvent: methanol, ethanol, isopropanol, 1-butanol, acetone and tetrahydrofurane. Solid obtainable from these solvents was not stable and it melted at a temperature 25° C. […] The solid Form M can be therefore used for purification of Omecamtiv mecarbil. The salt can be transformed into Omecamtiv mecarbil by contacting with a base (for example sodium hydrogen carbonate or potassium hydrogen carbonate or sodium carbonate or potassium carbonate or sodium hydroxide or potassium hydroxide) in a suitable solvent (for example an alcohol or acetone).
250 mg of Omecamtiv mecarbil was dissolved in a solvent (in Table below) at a temperature (in Table below). 40 μl methane sulfonic acid (1 eq. w.r.t. Omecamtiv mecarbil) was added. The mixture was cooled to 25° C. and stirred for 16 hours. If no solid appeared, mixture was then stirred at −15° C. Solid mass was filtered off and dried. The ratio between Omecamtiv mecarbil and the salt was determined by NMR as 1:2 (i.e. dimethane sulfonate salt).

COC(=O)N1CCN(Cc2cccc(NC(=O)Nc3ccc(C)nc3)c2F)CC1 [Omecamtiv mecarbil p-toluene sulfonic acid salt]
solubility ([1]; aqueous buffer pH 4.5): ≥ 1000 mg/mL
solubility ([1]; aqueous buffer pH 6.8): ≥ 1000 mg/mL
solubility ([1]; simulated gastric fluid, aqueous buffer pH 1.2): ≥ 1000 mg/mL

COC(=O)N1CCN(Cc2cccc(NC(=O)Nc3ccc(C)nc3)c2F)CC1 [Salt with methane sulfonic acid, Form M, Omecamtiv mecarbil methane sulfonic acid salt]
stability of the crystalline solid [2]: form M, stable at 25° C.,
